In patent US7754440B2 (priority 2001, dated 2010):
“Also recorded” adds a separate entry of the source.

Tests used:
Type in all cases: cell-based
Nav1.3 sodium channel [1] = biological target: T1, Nav1.3 sodium channel (Homo sapiens, UniProt Q9NY46); assay: cell-based; settings: for IC50: read-out: IC50 obtained using patch-clamp
Nav1.3 sodium channel [2] = biological target: T1, Nav1.3 sodium channel; assay: Na+ depletion/repletion persistent current assay with single-wavelength membrane potential dye on FLIPR-Tetra
HEK-Nav 1.3 cells = assay: Counter-screen: K+-dependent depolarization (VIPR FRET); settings: tetracaine 10 μM; K+ final 80 mM; FIG. 10
Nav1.3 sodium channel [3] = biological target: T1, Nav1.3 sodium channel; assay: Persistent sodium current screening assay using FRET dyes on VIPR (Na+-dependent depolarization); settings: tetracaine 10 μM; HEK-Nav 1.3 cells; FIG. 10

T1 sequence (Q9NY46 whole entry): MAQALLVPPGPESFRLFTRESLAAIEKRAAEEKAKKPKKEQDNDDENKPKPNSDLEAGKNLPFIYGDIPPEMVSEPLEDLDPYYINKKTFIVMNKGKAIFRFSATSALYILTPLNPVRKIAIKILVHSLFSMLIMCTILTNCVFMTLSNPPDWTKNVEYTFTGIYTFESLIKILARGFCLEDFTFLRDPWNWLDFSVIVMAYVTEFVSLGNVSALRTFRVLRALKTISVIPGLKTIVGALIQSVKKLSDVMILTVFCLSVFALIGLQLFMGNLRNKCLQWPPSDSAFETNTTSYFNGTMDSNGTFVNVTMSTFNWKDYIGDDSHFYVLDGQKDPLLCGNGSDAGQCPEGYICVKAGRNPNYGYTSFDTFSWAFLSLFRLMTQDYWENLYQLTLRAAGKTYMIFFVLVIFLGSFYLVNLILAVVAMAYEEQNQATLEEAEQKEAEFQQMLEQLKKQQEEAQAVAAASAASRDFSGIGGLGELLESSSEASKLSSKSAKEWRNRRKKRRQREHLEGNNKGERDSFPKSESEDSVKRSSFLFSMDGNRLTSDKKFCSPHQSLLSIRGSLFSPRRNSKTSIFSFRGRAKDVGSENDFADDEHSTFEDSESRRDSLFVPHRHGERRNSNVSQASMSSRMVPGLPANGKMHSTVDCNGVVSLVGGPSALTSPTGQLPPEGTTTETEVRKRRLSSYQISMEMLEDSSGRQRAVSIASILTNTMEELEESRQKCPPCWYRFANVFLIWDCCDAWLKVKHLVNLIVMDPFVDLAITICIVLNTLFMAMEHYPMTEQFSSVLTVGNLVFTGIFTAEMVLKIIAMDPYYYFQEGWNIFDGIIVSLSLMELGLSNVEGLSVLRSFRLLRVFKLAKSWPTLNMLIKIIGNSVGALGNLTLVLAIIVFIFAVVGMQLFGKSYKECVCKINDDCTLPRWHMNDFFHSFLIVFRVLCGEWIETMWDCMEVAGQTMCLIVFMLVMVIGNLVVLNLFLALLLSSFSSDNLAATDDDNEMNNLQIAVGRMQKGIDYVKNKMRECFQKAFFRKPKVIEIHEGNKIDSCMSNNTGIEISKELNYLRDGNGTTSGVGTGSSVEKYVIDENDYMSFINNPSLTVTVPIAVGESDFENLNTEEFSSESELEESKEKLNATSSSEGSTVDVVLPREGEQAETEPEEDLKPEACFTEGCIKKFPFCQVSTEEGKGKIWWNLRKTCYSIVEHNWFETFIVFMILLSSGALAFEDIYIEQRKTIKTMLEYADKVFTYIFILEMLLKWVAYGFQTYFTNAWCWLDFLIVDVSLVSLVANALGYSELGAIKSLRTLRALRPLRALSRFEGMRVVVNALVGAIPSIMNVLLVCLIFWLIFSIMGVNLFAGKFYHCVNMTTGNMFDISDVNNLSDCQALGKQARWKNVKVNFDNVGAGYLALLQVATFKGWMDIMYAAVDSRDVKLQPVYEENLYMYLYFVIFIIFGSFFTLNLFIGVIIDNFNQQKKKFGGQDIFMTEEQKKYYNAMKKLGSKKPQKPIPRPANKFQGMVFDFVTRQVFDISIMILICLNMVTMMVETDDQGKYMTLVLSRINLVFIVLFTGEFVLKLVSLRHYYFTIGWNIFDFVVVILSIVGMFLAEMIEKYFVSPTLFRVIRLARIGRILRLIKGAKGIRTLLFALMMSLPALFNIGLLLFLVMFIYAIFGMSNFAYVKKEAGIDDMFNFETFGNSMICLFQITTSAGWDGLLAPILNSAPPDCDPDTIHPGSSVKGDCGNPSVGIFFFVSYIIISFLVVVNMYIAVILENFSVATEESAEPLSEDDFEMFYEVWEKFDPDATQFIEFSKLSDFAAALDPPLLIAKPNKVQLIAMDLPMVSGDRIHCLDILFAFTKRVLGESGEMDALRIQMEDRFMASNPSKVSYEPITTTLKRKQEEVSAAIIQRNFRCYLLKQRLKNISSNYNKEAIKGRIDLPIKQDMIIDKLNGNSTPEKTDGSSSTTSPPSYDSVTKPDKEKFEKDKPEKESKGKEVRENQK

Question: CCN(CC)CC(=O)Nc1c(C)cccc1C [Lidocaine] was tested. Which IC50 (Nav1.3 sodium channel [1]; comparison values for the persistent current assay) did it give?
Answer: The IC50 was 90 µM.

Question: And the IC50 (Nav1.3 sodium channel [2])?
Answer: Its IC50 is 32 µM.

Question: What does the source list for CCCCNc1ccc(C(=O)OCCN(C)C)cc1 [Tetracaine]?
Answer: K+-dependent change in Rf/Ri (K+-dependent depolarization) (HEK-Nav 1.3 cells): not; Na+-dependent change in Rf/Ri (Na+-dependent depolarization) (Nav1.3 sodium channel [3]): inhibited

Question: Which results are given for TTX?
Answer: Block of persistent current (Nav1.3 sodium channel [1]): completely blocked; Block of transient current (Nav1.3 sodium channel [1]): completely blocked; IC50 (Nav1.3 sodium channel [1]): 0.005 µM; Na+ channel dependent component of the fluorescence response (Nav1.3 sodium channel [2]): blocked; also recorded: the initial response is lost; IC50 (Nav1.3 sodium channel [2]; read-out: IC50 persistent sodium current, FLIPR-Tetra assay): 0.005 µM
